# Measured values from PMC9317902, “Multi-Targeting Approach in Glioblastoma Using Computer-Assisted Drug Discovery Tools to Overcome the Blood–Brain Barrier and Target EGFR/PI3Kp110β Signaling” (Cancers, 2022).
# How the values were obtained:
# [1] = system: HBMEC; experiment: HBMEC integrity and morphology (β-catenin, F-actin immunofluorescence); type: cell-based, human
# Excerpt: HBMEC in coverslips were stained for: the junctional protein β-catenin (1:100, Thermo Fisher Scientific, Waltham, MA, USA, #71-2700), the cytoskeleton protein F-actin (1:1000, Phalloidin dye, Abcam, Cambridge, UK, #ab17675), and the efflux transporter P-gp (1:50, Santa Cruz Biotechnology, Dallas, TX, USA, #sc-390883). HBMEC seeded on polyester inserts for transport assays were also stained for the junctional protein zonula occludens-1 (ZO-1, 1:200, Thermo Fisher Scientific, Waltham, MA, USA, #40-2200) and the cytoskeleton protein vimentin (1:100, Thermo Fisher Scientific, Waltham, MA, USA, #MA3745).
# Incubations with primary antibodies occurred overnight at 4 °C. Incubation with the secondary antibodies Alexa Fluor 555 (1:500, Thermo Fisher Scientific, Waltham, MA, USA, #A21428) or Alexa Fluor 488 (1:500, Thermo Fisher Scientific, Waltham, MA, USA, #A11001) lasted for 1 h at room temperature. Nuclei were counterstained with Hoechst 33342 dye (1:1000, Thermo Fisher Scientific, Waltham, MA, USA, #33342) for 10 min. Before mounting with DPX (Merck Millipore, Burlington, MA, USA), cells were dehydrated with methanol. Negative controls were performed.
# All acquired images were treated in ImageJ (NIH, Bethesda, MD, USA). Assessment of nuclear morphology following Hoechst staining was evaluated. For fluorescence intensity measures, the regions of interest were selected in Image J, and corresponding integrated densities were obtained. The representative 3D plots for BBB integrity were obtained by merged pixel intensity using the surface plot tool of Image J. For F-actin stress fibers analysis, the plot profile tool of Image J was used considering each defined cell-ferret diameter.
# For analysis of β-catenin internalization and HBMEC morphological changes, Icy software was used. At least 5 cells per field were delineated and the conveyed values of membrane/interior pixels and roundness (area/perimeter^2) were exported and analyzed. Taking advantage of membrane staining (β-catenin), the BBB’s integrity was also analyzed by quantifying the total area of intercellular gaps in the HBMEC monolayer.
# [2] = system: U87MG cells; experiment: Abluminal conditioned medium of HBMEC on U87MG; type: cell-based; conditions: 24 h, MTT
# Protocol: To evaluate disruptive effects in HBMEC monolayer when co-cultured, a transport assay using HBMEC monoculture was conducted. After 2 h of molecules incubation, the abluminal conditioned media were collected and used to supply U87MG or U87MG-wtEGFR cells for 24 h, which grew to confluence for 3 days. HBMEC were also tested for barrier integrity, and MTT assays were performed at the end of incubation.
# [3] = system: U87MG-wtEGFR cells; experiment: MTT cell viability, U87MG-wtEGFR; type: cell-based; conditions: U87MG-wtEGFR, 24 h, MTT
# Protocol: To analyze molecules’ cytotoxicity, U87MG and U87MG-wtEGFR cells were seeded into 96-well plates at a density of 2.5 × 10^4 cells/mL, and after 48 h were incubated with 0.1, 1, 10, or 100 µM of each molecule diluted in (non-supplemented) cell medium for 24 h. […] Dose–response data were also obtained for treatment with triton X-100 (positive control) and DMSO (vehicle; negative control). The cytotoxicity of selected molecules from initial screening was tested in HBMEC at 100 µM for 24 h. HBMEC were seeded at a density of 8 × 10^4 cell/mL in 96-well plates and after 48 h were incubated with the molecules.
# In screening assays, cell viability was evaluated using thiazolyl blue tetrazolium bromide (MTT). Briefly, a culture medium containing 0.5 mg/mL of MTT was added to each well for 90 min at 37 °C. The supernatant was removed and the formed formazan crystals in viable cells were solubilized with 0.04 N HCl in isopropanol solution.
smiles,measurement,setting,value
CCCCN1CCCc2cc(CN(CCN3CCOCC3)C(=S)Nc3cc(F)cc(F)c3)ccc21 [Mol 19],HBMEC shape (roundness),[1],no significant changes in HBMEC shape
same,β-catenin expression and location,[1],absence of changes in β-catenin expression and location
same,U87MG cell viability with basolateral conditioned medium of HBMEC,[2],none of the molecules induced a statistically significant difference
same,EC50,[3]; read-out: EC50,27.6 ± 5.91 µM
same,cell death,[3]; screening 0.1-100 µM,≥ 50%
